Earlier results in patent publication US20260272857A1, “AN ORALLY RAPIDLY DISINTEGRATING TABLET OF PROPRANOLOL AND ITS PROCESS OF PREPARATION” (NOVUMGEN LIMITED, priority 2023, published 2026).
Counter-ions that a name gives are not always drawn.

Key:
[1] = high permeability and high solubility drug
[2] = in vivo

| BCS class in the Biopharmaceutical classification system [1] | Elimination half-life [2] [h] | Plasma half-life [2] [h] | SMILES |
| --- | --- | --- | --- |
| BCS class I |  |  | CC(C)NCC(O)COc1cccc2ccccc12 (stereo not drawn) [Propranolol hydrochloride] |
|  | 8 | 3 to 6 | CC(C)NCC(O)COc1cccc2ccccc12 (stereo not drawn) [propranolol, 1-naphthalen-1-yloxy-3-(propan-2-ylamino) propan-2-ol] |
